How the values were obtained:
Format in all cases: cell-based, human
PC-3 = assay: NCI SRB cytotoxicity, PC-3 (prostate)
Experimental: (§1) Biological Activity: The in vitro biological activity studies were carried out at the National Cancer Institute, Maryland, USA.
(§2) The C8-linked isoxazoline-PBD hybrids have been tested against sixty human tumour cell lines derived from nine cancer types (leukemia, non-small cell lung cancer, colon cancer, CNS cancer, melanoma, ovarian cancer, renal cancer, prostate cancer and breast cancer) as per NCI protocol. For each compound, dose response curves for individual cell lines have been measured at a minimum of five concentrations at 10 fold dilutions. A protocol of 48 hrs continuous drug exposure has been used, and a sulforhodamine B (SRB) protein assay was used to estimate cell viability or growth. The concentration for 50% cell growth inhibition (GI50), total cell growth inhibition (TGI, 0% growth) and 50% cell death (LC50, […]) compared with the control has been calculated (FIG. 2).
(§3) Compound 5b and 9b have been evaluated for in vitro cytotoxicity in sixty cell lines from nine human cancer types of lung (Hop-62, NCI-H226, NCI-H522), leukemia (K-562, SR), colon (HCT-116, HCT-15, HCC-2998), CNS(SF-539), melanoma (SK-MEL-5, UACC-62, M14), ovarian (IGROV1), renal (A498), prostate (PC3) breast (BT-549, MDA-MB-435, HS578T) origin. The results are expressed as percent of cell growth determined relative to that of untreated control cells (Table 1).

UACC-62 = assay: NCI SRB cytotoxicity, UACC-62 (melanoma)
Experimental: as §1, §2, §3

ACHN = assay: NCI SRB cytotoxicity, ACHN (renal); conditions: 48 hrs exposure
Experimental: as §1, §2, §3

MDA-MB-468 = assay: NCI SRB cytotoxicity, MDA-MB-468 (breast); conditions: 48 hrs exposure
Experimental: as §1, §2, §3

KM12 = assay: NCI SRB cytotoxicity, KM12 (colon); conditions: 48 hrs exposure
Experimental: as §1, §2, §3

NCI-H226 = assay: NCI SRB cytotoxicity, NCI-H226 (non-small cell lung)
Experimental: as §1, §2, §3

OVCAR-3 = assay: NCI SRB cytotoxicity, OVCAR-3 (ovarian); conditions: 48 hrs exposure
Experimental: as §1, §2, §3

OVCAR-5 = assay: NCI SRB cytotoxicity, OVCAR-5 (ovarian); conditions: 48 hrs exposure
Experimental: as §1, §2, §3

HL-60(TB) = assay: NCI SRB cytotoxicity, HL-60(TB) (leukemia); conditions: 48 hrs exposure
Experimental: as §1, §2, §3

SNB-19 = assay: NCI SRB cytotoxicity, SNB-19 (CNS); conditions: 48 hrs exposure
Experimental: as §1, §2, §3

MALME-3M = assay: NCI SRB cytotoxicity, MALME-3M (melanoma); conditions: 48 hrs exposure
Experimental: as §1, §2, §3

BT-549 = assay: NCI SRB cytotoxicity, BT-549 (breast)
Experimental: as §1, §2, §3

Ovarian = assay: NCI SRB cytotoxicity, ovarian cancer panel; conditions: average of six to eight different cancer cell lines; for Log10 LC50: 50% lethality
Experimental: as §1, §2, §3

RPMI-8226 = assay: NCI SRB cytotoxicity, RPMI-8226 (leukemia); conditions: 48 hrs exposure
Experimental: as §1, §2, §3

SK-MEL-2 = assay: NCI SRB cytotoxicity, SK-MEL-2 (melanoma); conditions: 48 hrs exposure
Experimental: as §1, §2, §3

UO-31 = assay: NCI SRB cytotoxicity, UO-31 (renal); conditions: 48 hrs exposure
Experimental: as §1, §2, §3

SR = assay: NCI SRB cytotoxicity, SR (leukemia)
Experimental: as §1, §2, §3

Melanoma = assay: NCI SRB cytotoxicity, melanoma panel; conditions: average of six to eight different cancer cell lines; for Log10 LC50: 50% lethality
Experimental: as §1, §2, §3

SN12C = assay: NCI SRB cytotoxicity, SN12C (renal); conditions: 48 hrs exposure
Experimental: as §1, §2, §3

NCI-H522 = assay: NCI SRB cytotoxicity, NCI-H522 (non-small cell lung)
Experimental: as §1, §2, §3

SF-539 = assay: NCI SRB cytotoxicity, SF-539 (CNS)
Experimental: as §1, §2, §3

HOP-92 = assay: NCI SRB cytotoxicity, HOP-92 (non-small cell lung); conditions: HOP-92, Non-smallcell lung; 48 hrs exposure
Experimental: as §1, §2, §3

SK-MEL-28 = assay: NCI SRB cytotoxicity, SK-MEL-28 (melanoma); conditions: 48 hrs exposure
Experimental: as §1, §2, §3

SK-OV-3 = assay: NCI SRB cytotoxicity, SK-OV-3 (ovarian); conditions: 48 hrs exposure
Experimental: as §1, §2, §3

IGROV1 = assay: NCI SRB cytotoxicity, IGROV1 (ovarian)
Experimental: as §1, §2, §3

Breast = assay: NCI SRB cytotoxicity, breast cancer panel; conditions: average of six to eight different cancer cell lines; for Log10 LC50: 50% lethality
Experimental: as §1, §2, §3

HOP-62 = assay: NCI SRB cytotoxicity, HOP-62 (non-small cell lung)
Experimental: as §1, §2, §3

TK-10 = assay: NCI SRB cytotoxicity, TK-10 (renal); conditions: 48 hrs exposure
Experimental: as §1, §2, §3

M14 = assay: NCI SRB cytotoxicity, M14 (melanoma)
Experimental: as §1, §2, §3

NCI-H23 = assay: NCI SRB cytotoxicity, NCI-H23 (non-small cell lung); conditions: NCI-H23, Non-smallcell lung; 48 hrs exposure
Experimental: as §1, §2, §3

Prostate = assay: NCI SRB cytotoxicity, prostate cancer panel; conditions: average of six to eight different cancer cell lines; for Log10 LC50: 50% lethality
Experimental: as §1, §2, §3

HS 578T = assay: NCI SRB cytotoxicity, HS 578T (breast)
Experimental: as §1, §2, §3

HCT-116 = assay: NCI SRB cytotoxicity, HCT-116 (colon)
Experimental: as §1, §2, §3

HCT-15 = assay: NCI SRB cytotoxicity, HCT-15 (colon)
Experimental: as §1, §2, §3

CNS = assay: NCI SRB cytotoxicity, CNS cancer panel; conditions: average of six to eight different cancer cell lines; for Log10 LC50: 50% lethality
Experimental: as §1, §2, §3

[1] = PC-3, Prostate, 48 hrs exposure
[2] = UACC-62, Melanoma, 48 hrs exposure
[3] = NCI-H226, Non-smallcell lung, 48 hrs exposure
[4] = BT-549, Breast, 48 hrs exposure
[5] = NCI-H522, Non-smallcell lung, 48 hrs exposure
[6] = IGROV1, Ovarian, 48 hrs exposure
[7] = HOP-62, Non-smallcell lung, 48 hrs exposure
[8] = HS 578T, Breast, 48 hrs exposure
[9] = HCT-116, Colon, 48 hrs exposure

Structure (SMILES): COc1cc(C2=NOC(c3cc(OC)c(OC)c(OC)c3)C2)ccc1OCCCCOc1cc2c(cc1OC)C(=O)N1CCC[C@H]1C=N2 (stereo partly drawn) [Compound 5b, (11aS)-7-(methyloxy)-8-(4-[(2-(methyloxy)-4-5-[3,4,5-tri(methyloxy)phenyl]-4,5-dihydro-3-isoxazolylphenyl)oxy]butyloxy)-2,3,5,11a-tetrahydro-1H benzo[e]pyrrolo[1,2-a][1,4]diazepin-5-one]
- GI50 (PC-3; [1]): 320 nM
- GI50 (PC-3; prostate PC-3): 320 nM
- GI50 (UACC-62; [2]): 160 nM
- GI50 (UACC-62; melanoma UACC-62): 160 nM
- GI50 (ACHN): 280 nM
- GI50 (MDA-MB-468): 220 nM
- GI50 (KM12): 220 nM
- GI50 (NCI-H226; [3]): 170 nM
- GI50 (NCI-H226; non-small cell lung cancer NCI-H226): 310 nM
- GI50 (OVCAR-3): 270 nM
- GI50 (OVCAR-5): 420 nM
- GI50 (HL-60(TB)): 180 nM
- GI50 (SNB-19): 340 nM
- GI50 (MALME-3M): 210 nM
- GI50 (BT-549; [4]): 90 nM
- GI50 (BT-549; breast BT-549): 90 nM
- Log10 LC50 (Ovarian): −4.84 mol/L
- Log10GI50 (Ovarian): −6.44 mol/L
- GI50 (RPMI-8226): 240 nM
- GI50 (SK-MEL-2): 230 nM
- GI50 (UO-31): 290 nM
- GI50 (SR; SR, Leukemia, 48 hrs exposure): 140 nM
- GI50 (SR; leukemia SR): 140 nM
- Log10 LC50 (Melanoma): −5.82 mol/L
- Log10GI50 (Melanoma): −6.68 mol/L
- GI50 (SN12C): 300 nM
- GI50 (NCI-H522; [5]): 120 nM
- GI50 (NCI-H522; non-small cell lung cancer NCI-H522): 120 nM
- GI50 (SF-539; CNS SF-539): 220 nM
- GI50 (SF-539; SF-539, CNS, 48 hrs exposure): 220 nM
- GI50 (HOP-92): 310 nM
- GI50 (SK-MEL-28): 200 nM
- GI50 (SK-OV-3): 470 nM
- GI50 (IGROV1; [6]): 240 nM
- GI50 (IGROV1; ovarian IGROV1): 240 nM
- Log10 LC50 (Breast): −4.52 mol/L
- Log10GI50 (Breast): −6.74 mol/L
- GI50 (HOP-62; [7]): 270 nM
- GI50 (HOP-62; non-small cell lung cancer HOP-62): 270 nM
- GI50 (TK-10): 280 nM
- GI50 (M14; M14, Melanoma, 48 hrs exposure): 180 nM
- GI50 (M14; melanoma M14): 180 nM
- GI50 (NCI-H23): 270 nM
- Log10 LC50 (Prostate): −4.82 mol/L
- Log10GI50 (Prostate): −6.49 mol/L
- GI50 (HS 578T; [8]): 160 nM
- GI50 (HS 578T; breast HS 578T): 160 nM
- GI50 (HCT-116; [9]): 180 nM
- GI50 (HCT-116; colon cancer HCT-116): 180 nM
- GI50 (HCT-15; HCT-15, Colon, 48 hrs exposure): 180 nM
- GI50 (HCT-15; colon cancer HCT-15): 190 nM
- Log10 LC50 (CNS): −5.18 mol/L
- Log10GI50 (CNS): −6.51 mol/L

Structure (SMILES): COc1ccc(C2CC(c3ccc(OC)c(OC)c3OC)=NO2)cc1OCCCCOc1cc2c(cc1OC)C(=O)N1CCC[C@H]1C=N2 (stereo partly drawn) [Compound 9b, (11aS)-7-(methyloxy)-8-(4-[(2-(methyloxy)-5-3-[2,3,4-tri(methyloxy)phenyl]-4,5-dihydro-5-isoxazolylphenyl)oxy]butyloxy)-2,3,5,11a-tetrahydro-1H-benzo[e]pyrrolo[1,2-a][1,4]diazepin-5-one]
- GI50 (PC-3; [1]): 580 nM
- GI50 (UACC-62; [2]): 1520 nM
- GI50 (ACHN): 2410 nM
- GI50 (MDA-MB-468): 1340 nM
- GI50 (KM12): 1740 nM
- GI50 (NCI-H226; [3]): 1670 nM
- GI50 (OVCAR-3): 1940 nM
- GI50 (OVCAR-5): 3130 nM
- GI50 (HL-60(TB)): 1900 nM
- GI50 (SNB-19): 1960 nM
- GI50 (MALME-3M): 2880 nM
- GI50 (BT-549; [4]): 1230 nM
- Log10 LC50 (Ovarian): −4.48 mol/L
- Log10GI50 (Ovarian): −5.61 mol/L
- GI50 (RPMI-8226): 1430 nM
- GI50 (SK-MEL-2): 2030 nM
- GI50 (UO-31): 2090 nM
- GI50 (SR; SR, Leukemia, 48 hrs exposure): 1120 nM
- Log10 LC50 (Melanoma): −5.12 mol/L
- Log10GI50 (Melanoma): −5.72 mol/L
- GI50 (SN12C): 1580 nM
- GI50 (NCI-H522; [5]): 610 nM
- GI50 (SF-539; SF-539, CNS, 48 hrs exposure): 1800 nM
- GI50 (HOP-92): 2470 nM
- GI50 (SK-MEL-28): 2070 nM
- GI50 (SK-OV-3): 3370 nM
- GI50 (IGROV1; [6]): 1570 nM
- Log10 LC50 (Breast): −4.34 mol/L
- Log10GI50 (Breast): −5.74 mol/L
- GI50 (HOP-62; [7]): 1680 nM
- GI50 (TK-10): 3510 nM
- GI50 (M14; M14, Melanoma, 48 hrs exposure): 1730 nM
- GI50 (NCI-H23): 1830 nM
- Log10 LC50 (Prostate): −4.54 mol/L
- Log10GI50 (Prostate): −5.92 mol/L
- GI50 (HS 578T; [8]): 1100 nM
- GI50 (HCT-116; [9]): 1700 nM
- GI50 (HCT-15; HCT-15, Colon, 48 hrs exposure): 2270 nM
- Log10 LC50 (CNS): −5.05 mol/L
- Log10GI50 (CNS): −5.74 mol/L

Source: US8372831B2, “Isoxazoline linked pyrrolo[2,1-c][1,4]benzodiazepine hybrids as potential anticancer agents and the process for preparation thereof” (Council of Scientific & Industrial Research, priority 2008, dated 2013)
